The values below come from publication PMC11404765 (Journal of Clinical Oncology, 2024).

One series can be described thus: PK profiles in serum. It is filed as in vivo, human.
The subject of series [1] is BTC harboring FGFR2 fusions or rearrangements. The settings on record: phase II trials; cited from earlier work.
Another series has as its system IDH1-mutant BTC. The following applies: phase III; cited from earlier work.
In the next series the test system is advanced BTC. The following applies: phase III, added to chemotherapy, first-line advanced BTC; cited from earlier work.

Marks after values point to notes of the source that are not given here.

In the case of `CC[C@@]1(O)C(=O)OCc2c1cc1n(c2=O)Cc2c-1nc1cc(F)c(C)c3c1c2[C@@H](NC(=O)CO)CC3` [MAAA-1181a], in “PK profiles in serum” (n = 6), the “t1/2, mean (SD)” value is recorded as 4.76 (1.02) days. Also, in the series “PK profiles in serum” (n = 7), the “Tmax, median (range)” value was 3.88 (1.65-4.07) hours. For the same molecule, the “Cmax, mean (SD)” value in “PK profiles in serum” (payload after T-DXd 5.4 mg/kg, n = 7) is reported as 11.5 (4.65)^a ng/mL. Regarding `CCN1CCN(c2ccc(Nc3cc(N(C)C(=O)Nc4c(Cl)c(OC)cc(OC)c4Cl)ncn3)cc2)CC1` [infigratinib], the ORR in series [1] is on record as 18.8%. With `N#Cc1ccnc(N2C(=O)CC[C@H]2C(=O)N(c2cncc(F)c2)[C@H](C(=O)NC2CC(F)(F)C2)c2ccccc2Cl)c1` [ivosidenib], in the series with IDH1-mutant BTC, the “PFS compared with placebo” value is “improved”. `CCN1C(=O)N(c2c(F)c(OC)cc(OC)c2F)Cc2cnc3[nH]c(CN4CCOCC4)cc3c21` [pemigatinib]: the ORR in series [1] is on record as 35.5%. With durvalumab, the “Overall survival (OS)” value in the series with advanced BTC was “improved overall survival”.

In the case of pembrolizumab, the “Overall survival (OS)” value with advanced BTC is recorded as “improved overall survival”.
